The values that follow come from article PMC8397403, “Physiologically Based Pharmacokinetic Modeling of Transporter-Mediated Hepatic Disposition of Imaging Biomarker Gadoxetate in Rats” (Molecular Pharmaceutics, 2021).

SMILES strings stand for the structures. Values joined by “and” are separate entries in the source; they are usually repeats but may differ in a detail not shown here. Equal values may be shown once. Read-outs that look alike come from different tables or passages of the source. Marks after values point to notes of the source that are not given here.

The nature of series [1]: Top-down PBPK model fitting to DCE-MRI ΔR1 data, gadoxetate administered alone. It counts as in vivo, rat. How it is done:
DCE–MRI data generated using the 3D Fast Low Angle Shot RF-spoiled gradient echo sequence (FLASH) protocol in male Wistar-Han rats were used for assessing the PBPK IVIVE performances and for obtaining some of the PBPK parameters within the bottom-up and top-down approaches, respectively. The DCE–MRI data were acquired in a multicenter study at two magnetic field strengths, 4.7 and 7 T. Gadoxetate was administered at a dose of 25 μmol/kg, either alone or 1 h after IV administration of 10 mg/kg rifampicin. When gadoxetate was administered alone (control arm), 43 profiles of blood, spleen, and liver measured at a field strength of 4.7 T and 52 profiles of blood, spleen, and liver measured at 7 T were available. In the case of gadoxetate administered with rifampicin, 7 blood, spleen, and liver profiles at a field strength equal to 4.7 T and 6 at 7 T were available. All gadoxetate DCE–MRI data and study protocols are detailed in a companion paper (Hines et al. in submission).
The measured quantity in DCE–MRI is ΔR1 (s^–1), the change of the water proton longitudinal relaxation rate, a magnetic property of the tissues, due to the presence of the contrast agent. In sufficiently homogeneous tissues, the tissue concentration of the contrast agent as a function of time, c(t), can be derived from ΔR1(t). The relationship between c(t) and ΔR1(t) depends on the physical interactions between the contrast agent molecules and the tissue.[39] For a given tissue τ, the relation between ΔR1,τ(t) and cτ(t) is generally considered to be linear, as in eq 4.[39],[40] [drawing 4] 4
A reduced PBPK model was developed to describe the PK of gadoxetate in rats; a permeability-limited liver model was implemented capturing relevant processes, as done previously.[6],[41] The compartments represent the blood, spleen, splanchnic organs, liver interstitial space, hepatocytes, and the rest of the body (ROB) vascular and extravascular spaces. The ROB compartment includes muscles, skin, bones, and fat among others. Details of model equations and physiological parameters values are reported in the Supporting Information, Sections 2, 3, and 5.
Standard kinetic models used for MRI contrast agents generally describe the organs by using three compartments: plasma, interstitial, and intracellular spaces.[12],[42],[43] Gadoxetate distributes only in the extracellular space of all the organs; liver is the exception, where gadoxetate undergoes active uptake into the hepatocytes.[44] Therefore, in the gadoxetate PBPK model, the volume of all the compartments, except the blood and the liver, corresponded to the organ extracellular space, that in turn was considered to be composed of the blood within the organ and the interstitial space. For highly vascularized and perfused organs with fenestrated capillaries (e.g., liver), the exchange between the plasma and the interstitial space is generally considered to be fast.[12],[19] Therefore, for liver, spleen, and splanchnic compartments, the extracellular volumes were considered to be the sum of the blood within the organ and the interstitial space volumes. […] A permeability limitation between the vascular and interstitial space was, therefore, assumed for the ROB compartment, as shown in eq 5. [drawing 5] 5 cb, crob,v and crob,ev [μmol/L] are the gadoxetate concentration in blood and ROB vascular and extravascular compartments; Vrob,v and Vrob,ev [L] are the ROB vascular and extravascular compartment volumes, respectively; and PS [L/h] is the permeability surface product. […]

For series [2] the following is noted: renal clearance calculated as CLtotal × fe, rat weight 0.25 kg; fixed literature value; cited from earlier work.
On the set-up of series [3]: method as in PMID 32851735. The following applies: cited from earlier work; for Ex vivo relaxivity r1, blood: spleen assumed equal to blood.
Where [4] appears, read: fit to blood, spleen and liver ΔR1, gadoxetate alone, mean (CV %) of 1000 bootstrap samples.
Setting [5] is: gadoxetate alone, blood data only, value (CV).
[6] abbreviates: gadoxetate alone, blood, spleen, liver ΔR1, CLr also estimated, value (CV).

In the case of `CCOc1ccc(C[C@@H](CN(CCN(CC(=O)[O-])CC(=O)[O-])CC(=O)[O-])N(CC(=O)[O-])CC(=O)[O-])cc1.[Gd+3].[H+].[H+]` [gadoxetate], the “CLactive, top-down estimate” value in series [1] (fit to blood, spleen and liver ΔR1, gadoxetate alone 25 μmol/kg, mean (CV %) of 1000 bootstrap samples) is 2.17 (11.5%) ^b L/h. Also, in series [1] (setting [4]), the “CLbiliary, top-down estimate” value is 0.07 (3.2%) ^b L/h and the “PS, top-down estimate” value is 0.62 (6.3%) ^b L/h. Besides, in series [1] (setting [5]), the “CLactive, estimated only with ΔR1 blood data” value was 1.88 (23.2 %) L/h and 1.88 L/h; the “PS, estimated only with ΔR1 blood data” value was 1.92 (20.8 %) L/h and 1.92 L/h. Besides, in series [1] (setting [6]), the “CLactive, simultaneous estimation with CLr” value was “practically unidentifiable”; the “CLbiliary, simultaneous estimation with CLr” value is 0.07 (2.6 %) L/h; the “PS, simultaneous estimation with CLr” value was 0.58 (8.3 %) L/h. The “CLactive, simultaneous estimation with CLr” value in series [1] (gadoxetate alone, blood, spleen, liver ΔR1, CLr also estimated, value (CV), listed as Gadoxetate) is on record as 3.11 (>1000 %) L/h. The “CLr, estimated” value in series [1] (gadoxetate alone, blood, spleen, liver ΔR1, value (CV)) is reported as 0.40 (24.6 %) L/h. The CLr in series [2] was 0.17 L/h. For the same compound, in series [3] (4.7 T), the “Ex vivo relaxivity r1, hepatocytes” value was 7.6 s^–1/mM and the “Ex vivo relaxivity r1, blood” value is listed as 6.4 s^–1/mM. In series [3] (7 T), the “Ex vivo relaxivity r1, hepatocytes” value is 6 s^–1/mM and the “Ex vivo relaxivity r1, blood” value is listed as 6.2 s^–1/mM.
